Data: patent US12699094B2, “Fluorescent biosensor for acetyl coenzyme A” (UNIVERSITY OF UTAH RESEARCH FOUNDATION, priority 2023, dated 2026)

Key:
[1] = biological target: PancAce (PANcACe), PanZ(R69)-GA-cpGFP-GA-(E70)PanZ, SEQ ID NO: 5; E. coli PanZ with cpGFP insertion (Escherichia coli, UniProt P37613, INS69[…]); test: Fluorescence titration of PancAce with acetyl-CoA, CoA and propionyl-CoA; assay type: binding
Method: Acetyl-CoA and CoA Titration and Spectrum Scans. Assays were done in 384 well plates with […] final well volume. All sensors and control proteins were diluted to 6 μM in protein storage buffer. Acetyl-CoA and CoA were dissolved in water at a concentration of 60 μM then serial diluted to 30 μM, 15 μM, 6 μM, 3 μM, 0.6 μM, 0.06 μM, and 0.006 μM. Wells were set up in triplicate with 14 μL water, 6 μL assay buffer, and 5 μL sensor. 5 μL of an acetyl-CoA stock or water were added to 1 μM sensor before reading. For Titration curves, plates were read at excitation 485 nm and emission 514 nm. For excitation scans plates were excited from 400 nm to 500 nm at 1 nm increments and emissions were read at […]. For emission scans plates were excited at 485 nm, 427 nm, or 405 nm and emissions were read from 500 nm to 575 nm in 1 nm increments. Triplicates were averaged and plotted for scans and percent difference between no acetyl-CoA and acetyl-CoA wells were calculated for titrations.
Titrations of acetyl-CoA and CoA with PANcACe and cpGFP alone were performed (FIG. 9). […] Since the insertion site of cpGFP is very close to the acetyl-CoA binding site, this effect was not surprising. […] Further, the selectivity of PANcACe for short-chain acyl-CoAs was tested (FIG. 11). […] A propionyl-CoA titration confirmed this apparent affinity difference (FIG. 12). Since saturation was not achieved up to 10 mM propionyl-CoA, it was assumed that the same maximal sensor response would be achieved for propionyl-CoA as for acetyl-CoA.

[2] = biological target: PancAce (PANcACe), PanZ(R69)-GA-cpGFP-GA-(E70)PanZ, SEQ ID NO: 5 (Escherichia coli, UniProt P37613, INS69[…]); test: Acyl-CoA screen, fluorescence response to 1 mM acyl-CoA; assay type: biochemical, E. coli; conditions: FIG. 11, n=3
Method: Acyl-CoA Screen. Assays were done in 384 well plates with 30 μL final volume. All sensors and control proteins were diluted to 6 μM in protein storage buffer. CoA, acetyl-CoA, propionyl-CoA, butyryl-CoA, malonyl-CoA, and succinyl-CoA were dissolved in water at a concentration of 6 mM. Wells were set up in triplicate with 14 μL water, 6 μL assay buffer, and 5 μL sensor. 5 μL of an acyl-CoA or water were added to 1 μM sensor before reading. Plates were read at excitation 485 nm and emission 514 nm. Triplicates were averaged and percent difference between acyl-CoAs and water were calculated.

[3] = tested on: E. coli (Rosetta DE3 cells)
Method: Plate Reader Refeeding. All assays were done with the BioTek Synergy™ Plate Reader with injectors. All sensors and control proteins were expressed in Rosetta (DE3) cells. PanZ was used as a non-fluorescent control, cpGFP was used as a fluorescent control, and PANcACe was the experimental. Reads were done with excitation 405 nm and 485 nm and emission at 514 nm. Cultures were grown in LB with kanamycin overnight at 37° C. then used to induce new cultures. Cells were grown at 37° C. to an OD600 of 0.6 then induced with 0.5 mM IPTG and grown overnight at 18° C. Cultures were split into 2, 600 μL aliquots and spun at 4000 rpm for 5 minutes.
Glucose Starvation and Refeeding. The supernatant was discarded and pellets were resuspended in 600 μL either starvation buffer (100 mM NaPO4, 2 mM MgCl2, 15 mM (NH4)2SO4+0 mM glucose) or refed buffer (100 mM NaPO4, 2 mM MgCl2, 15 mM (NH4)2SO4+28 mM glucose). 85 μL was added to 3 wells of a 96 well plate for each sample. […] Plates were read for 10 minutes every 30 seconds with 10 seconds of shaking between reads. […] Plates were read for 60 minutes every 30 seconds with 10 seconds of shaking between reads.
2-Deoxyglucose Starvation and Refeeding. […] Plates were read for 10 minutes every 30 seconds with 10 seconds of shaking between reads. […] Plates were read for 60 minutes every 30 seconds with 10 seconds of shaking between reads.

[4] = biological target: PanZ(R69)-GA-cpGFP-GA-(E70)PanZ (PancAce), SEQ ID NO: 5 (Escherichia coli, UniProt P37613, INS69[…]); test: Linker screen, fluorescence response to 1 mM acetyl-CoA; assay type: biochemical, E. coli
Method: Linker Length Screen. cpGFP (HTSD1.00) was inserted into 6× histidine tagged PanZ (HTSD1.10) after amino acid R69 with all 16 possible combinations of N- and C-terminal linkers with amino acid sequences GAS, GA, G, no linker using NEBuilder® HiFi DNA Assembly Master Mix (NEB) (HTSD8.00-8.15).
Position and Linker Screen. Assays were done in 96 well plates with 100 μL final well volumes. All sensors and control proteins were diluted to 10 μM in protein storage buffer (50 mM Tris pH 7.5, 150 mM NaCl, 10% glycerol). Acetyl-CoA was dissolved in water at a concentration of 10 mM. A 5× assay buffer was used ([…] pH 7.5, 750 mM NaCl). Wells were set up in triplicate with 60 μL water, 20 μL reaction buffer, and 10 μL sensor. Then either 10 μL of water or 10 μL of acetyl-CoA were added to 1 μM sensor before reading. […] Triplicates were averaged and percent difference between no acetyl-CoA and acetyl-CoA wells were calculated.

[5] = biological target: E. coli PanZ (PanZ-CFP fusion protein), SEQ ID NO: 1 (Escherichia coli, UniProt P37613); test: Surface plasmon resonance binding to PanZ-CFP; conditions: SPR
Method: Surface Plasmon Resonance. Acetyl-CoA and CoA binding to PanZ-CFP were analyzed via SPR using a MASS-1 instrument (Bruker Daltonics, Billerica, MA). Independent experiments were performed using freshly prepared PanZ-CFP, Acetyl-CoA, and CoA stocks on two separate days (surfaces 1 & 2). HLC200 μM sensor surfaces (Xantec Bioanalytics, Düsseldorf, Germany) were activated with EDC/NHS, and then 250 nM PanZ-CFP ligand was captured on the sensor “Spot B” at 10 μL/minute at 2020 RU (surface 1) and 2360 RU (surface 2). The surface was then blocked with […]. The experimental running buffer was 50 mM Tris pH 7.5, 150 mM NaCl, 0.05% Tween-20 for surface 1 replicates and 200 mM Tris pH 7.5, 150 mM NaCl, 0.05% Tween-20 for surface 2 replicates. Experiments were performed at room temperature with a flowrate of 30 μL/minute. A three-fold dilution series (81-0.33 μM) with 1 minute association and 2 minutes dissociation was run in multiple replicates (at least two for each analyte on each surface). Data were double blanked by subtracting the blank in-line control surface (Spot A) and buffer reference injections. Kinetic binding data were globally fit to the Langmuir model for 1:1 binding for each replicate of concentration series using the Sierra Analyser software (version 3.4.1, Bruker Daltonics, Billerica, MA). […]

## CCC(=O)SCCNC(=O)CCNC(=O)[C@H](O)C(C)(C)COP(=O)(O)OP(=O)(O)OC[C@H]1O[C@@H](n2cnc3c(N)ncnc32)[C@H](O)[C@@H]1OP(=O)(O)O [propionyl-CoA]
[1]; from fitted Kd values
  fold lower affinity for propionyl-CoA compared to acetyl-CoA: 2.4 fold
[1]; saturation not achieved up to 10 mM, fit assumes same maximal sensor response as for acetyl-CoA
  Kd (estimated): 626000 ± 75000 nM
[2]
  sensor fluorescence response: some response

## O=CC[C@@H](O)[C@H](O)[C@H](O)CO [2-DG, 2-deoxyglucose]
[3]; PancAce-expressing cells deprived of glucose 3 hours with 28 mM 2-DG, refed 28 mM glucose, monitored 1 hour
  recovery of acetyl-CoA levels (sensor response) upon refeeding: lower recovery of acetyl-CoA levels upon refeeding

## CC(C)(COP(=O)(O)OP(=O)(O)OC[C@H]1O[C@@H](n2cnc3c(N)ncnc32)[C@H](O)[C@@H]1OP(=O)(O)O)[C@@H](O)C(=O)NCCC(=O)NCCS [CoA, coenzyme A]
[1]; FIG. 9, acetyl-CoA or CoA titration
  sensor response: the sensor responds only to acetyl-CoA and not CoA
[1]; interpolation, saturation not achieved for CoA
  CoA concentration required to elicit the same sensor response as 100 μM acetyl-CoA: 10 mM

## CC(=O)SCCNC(=O)CCNC(=O)[C@H](O)C(C)(C)COP(=O)(O)OP(=O)(O)OC[C@H]1O[C@@H](n2cnc3c(N)ncnc32)[C@H](O)[C@@H]1OP(=O)(O)O [acetyl-CoA, acetyl coenzyme A]
[1]; FIG. 9
  lower end of detectable acetyl-CoA concentration range: about 10 UM
  upper end of detectable acetyl-CoA concentration range: about 2 mM
[1]; FIG. 12, λex=485, λem=514 nm, n=3-5
  fold higher affinity for acetyl-CoA compared to propionyl-CoA: approximately 2.5 fold
[1]; fluorescence Kd,app vs SPR Kd
  fold lower affinity of PANcACe for acetyl-CoA compared to PanZ: about 150 fold
[1]; λex=485, λem=514 nm
  maximum fluorescence response at saturating acetyl-CoA: ~2 fold
[4]; 1 mM acetyl-CoA, N-GA/C-GA linkers, λex=485, λem=514 nm
  fold-change in fluorescence emission ((F1−F0)/F0): about 0.6 fold
[4]; acetyl-CoA, FIG. 6
  response of GA/GA linker sensor relative to original AS/AS linker: about 2.5 fold
[5]
  fold higher affinity for acetyl-CoA versus CoA: 7 fold
[5]; 1:1 Langmuir fit, average ± standard error, room temperature, pH 7.5
  Kd: 1700 ± 200 nM

## CC(=O)O [acetate]
[3]; 280 μM acetate, pre-starved PancAce-expressing cells
  duration of increase in PancAce signal upon feeding of starved cells: about 30 minutes
